Reference: patent US20260297060A1, “COMPOUNDS FOR THE DEGRADATION OF MUTANT BRAF” (C4 THERAPEUTICS, INC., priority 2023, published 2026)
Like-named read-outs stand apart in the source and are kept apart here.

Columns and labels:
BRAF V600E = biological target: T1, BRAF V600E (Homo sapiens, UniProt P15056+Q96SW2, V600E); experiment: BRAF V600E HiBiT Degradation Assay; format: cell-based; conditions: for DC50: A375.10 cells, BRAF V600E, 2 hours; for Emax: read-out: HiBiT-Degradation A375.10 BRAF 2 hours Emax, A375.10 cells, BRAF V600E, 2 hours, residual protein remaining
T1 construct: knock-in of the HiBiT tag to the endogenous BRAF V600E locus; host or cells: A375.10 (A375 clonal line, CRISPR HiBiT knock-in at the endogenous BRAF V600E locus)
T1 sequence (P15056 whole entry V600E): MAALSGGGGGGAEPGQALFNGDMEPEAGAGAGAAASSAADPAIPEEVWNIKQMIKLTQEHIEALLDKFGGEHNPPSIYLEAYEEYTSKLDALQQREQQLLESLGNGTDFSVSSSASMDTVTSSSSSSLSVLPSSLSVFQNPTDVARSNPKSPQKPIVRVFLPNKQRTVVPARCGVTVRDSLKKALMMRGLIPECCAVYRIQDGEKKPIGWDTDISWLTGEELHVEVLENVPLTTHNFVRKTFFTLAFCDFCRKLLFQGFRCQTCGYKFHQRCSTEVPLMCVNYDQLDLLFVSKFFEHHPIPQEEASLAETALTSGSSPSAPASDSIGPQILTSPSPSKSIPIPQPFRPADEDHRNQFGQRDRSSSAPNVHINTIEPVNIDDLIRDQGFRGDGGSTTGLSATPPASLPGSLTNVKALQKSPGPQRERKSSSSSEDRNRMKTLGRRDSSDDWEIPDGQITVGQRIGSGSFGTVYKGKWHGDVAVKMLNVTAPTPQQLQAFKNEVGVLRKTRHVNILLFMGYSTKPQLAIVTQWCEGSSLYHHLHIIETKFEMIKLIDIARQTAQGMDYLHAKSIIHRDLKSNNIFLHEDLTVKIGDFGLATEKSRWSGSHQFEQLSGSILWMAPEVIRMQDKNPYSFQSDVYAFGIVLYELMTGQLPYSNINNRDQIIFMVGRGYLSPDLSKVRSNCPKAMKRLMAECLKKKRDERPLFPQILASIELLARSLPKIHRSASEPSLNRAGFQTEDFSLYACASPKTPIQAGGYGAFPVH
T1 sequence (Q96SW2 whole entry): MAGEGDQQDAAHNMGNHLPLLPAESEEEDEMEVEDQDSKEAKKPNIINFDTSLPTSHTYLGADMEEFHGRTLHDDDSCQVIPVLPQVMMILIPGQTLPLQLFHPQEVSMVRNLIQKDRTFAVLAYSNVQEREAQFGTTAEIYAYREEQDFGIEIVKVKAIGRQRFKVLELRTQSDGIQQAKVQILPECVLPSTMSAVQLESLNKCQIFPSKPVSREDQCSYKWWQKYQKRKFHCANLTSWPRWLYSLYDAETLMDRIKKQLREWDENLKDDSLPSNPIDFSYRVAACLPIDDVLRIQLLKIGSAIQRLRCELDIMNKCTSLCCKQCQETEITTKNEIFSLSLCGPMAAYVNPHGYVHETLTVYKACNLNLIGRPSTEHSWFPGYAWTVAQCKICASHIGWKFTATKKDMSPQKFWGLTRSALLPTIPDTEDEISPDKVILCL
T1 sequence (Q16531 whole entry partner): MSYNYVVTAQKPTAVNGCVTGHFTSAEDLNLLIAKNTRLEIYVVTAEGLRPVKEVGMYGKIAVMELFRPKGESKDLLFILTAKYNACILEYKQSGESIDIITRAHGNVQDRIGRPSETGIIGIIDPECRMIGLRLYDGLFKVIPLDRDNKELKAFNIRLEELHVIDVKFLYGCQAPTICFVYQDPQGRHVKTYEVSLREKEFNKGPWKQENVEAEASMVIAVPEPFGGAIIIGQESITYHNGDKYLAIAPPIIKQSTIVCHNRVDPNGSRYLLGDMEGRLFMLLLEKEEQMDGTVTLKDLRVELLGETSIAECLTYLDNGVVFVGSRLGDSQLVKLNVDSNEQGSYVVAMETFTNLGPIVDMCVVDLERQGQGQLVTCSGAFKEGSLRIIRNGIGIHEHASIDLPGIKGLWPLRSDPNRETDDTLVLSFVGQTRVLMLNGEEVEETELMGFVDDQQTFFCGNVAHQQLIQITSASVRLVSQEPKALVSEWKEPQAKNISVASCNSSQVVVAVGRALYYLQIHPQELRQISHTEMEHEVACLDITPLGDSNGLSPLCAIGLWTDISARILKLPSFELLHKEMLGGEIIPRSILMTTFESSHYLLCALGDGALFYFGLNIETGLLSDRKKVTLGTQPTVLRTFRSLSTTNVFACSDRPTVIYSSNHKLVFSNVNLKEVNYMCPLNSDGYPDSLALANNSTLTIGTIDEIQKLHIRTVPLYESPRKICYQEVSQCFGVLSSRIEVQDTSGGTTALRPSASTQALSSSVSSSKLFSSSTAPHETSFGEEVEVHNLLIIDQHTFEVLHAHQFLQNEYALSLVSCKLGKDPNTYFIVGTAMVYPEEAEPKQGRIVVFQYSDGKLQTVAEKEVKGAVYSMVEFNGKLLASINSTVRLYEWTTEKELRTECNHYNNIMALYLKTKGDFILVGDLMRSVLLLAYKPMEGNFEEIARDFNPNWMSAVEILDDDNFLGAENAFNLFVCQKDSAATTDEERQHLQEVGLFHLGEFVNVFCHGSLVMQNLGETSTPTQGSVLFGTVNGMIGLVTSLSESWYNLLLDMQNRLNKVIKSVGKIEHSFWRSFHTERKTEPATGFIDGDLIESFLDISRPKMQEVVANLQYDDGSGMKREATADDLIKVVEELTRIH
Outline: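 Endogenous HiBiT knock-in on BRAF V600E in A375 cells (clone A375.10); 11-point half-log series, top 10 μM, 2, 6 or 24 h at 37° C. Lytic HiBiT luminescence, background-subtracted, normalized to DMSO; 4-parameter fit gives DC50, Emax (residual protein) and IP (inflection point).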

[1] = tested on: A375 human melanoma xenografts; experiment: Example 6 efficacy study in A375 human melanoma xenografts (tumor volume, T/C, TGI); format: in vivo, BALB/c nude mice; conditions: p.o., QD × 21 days; for T/C / TGI / Tumor Size on PG-D21: PG-D21; for Tumor Size on PG-D21 / Tumor volume: Mean ± SEM
Protocol: For efficacy study, compounds were tested in the A375 human melanoma xenografts. Known BRAF inhibitors encorafenib, and dabrafenib were used as positive controls. Encorafenib and dabrafenib were administered to BALB/c nude mice bearing A375 tumors on PG-D1 and dosed PO daily (QD) for 3 weeks. Encorafenib was dosed at 35 mg/kg. Dabrafenib was dosed at 100 mg/kg. Compound 83, Compound 93, Compound 70, and Compound 54 were administered to BALB/c nude mice bearing A375 tumors on PG-DO and dosed PO twice per day (BID) for 3 weeks. Compound 83, Compound 93, Compound 70, and Compound 54 were dosed at 10 mg/kg.
The A375 tumor cells were maintained in vitro in DMEM medium supplemented with […] and 1% Penicillin-Streptomycin at 37° C. in an atmosphere of 5% CO2 in air. The tumor cells were routinely subcultured twice weekly. The cells growing in an exponential growth phase were harvested and counted for tumor inoculation.
Each mouse was inoculated subcutaneously at the right flank with A375 tumor cells (5×10^6) in 0.2 mL of PBS with Matrigel (PBS: Matrigel=1:1) supplemented for tumor development. Animals were grouped for the treatment on day 16 after tumor inoculation when the average tumor volume reached 221 mm^3 for efficacy study and 386 mm^3 for PKPD study. The test articles administration and the animal numbers in each group are shown in the above experimental Tables.
Prior to the onset of drug treatment, mice were measured for tumor size in two dimensions using a caliper, and the tumor volume (mm^3) was calculated using formula V=0.5 a×b^2 where a and b are the long and short diameters of the tumor in mm, respectively. Mice were randomized into different treatment groups based on the tumor volume.
The major endpoint was to see if the tumor growth could be delayed or mice could be cured. The tumor size was then used for calculations of T/C value. The T/C value (in percent) is an indication of antitumor effectiveness; T and C are the mean volumes of the treated and control groups, respectively on specified day.
TGI was calculated for each group using the formula: TGI (%)=[1−(Ti−T0)/(Ci−C0)]×100; Ti is the average tumor volume of a treatment group on a given day, T0 is the average tumor volume of the treatment group on the day of treatment start, Ci is the average tumor volume of the vehicle control group on the same day with Ti, and C0 is the average tumor volume of the vehicle group on the day of treatment start.

[2] = read-out: HiBiT-Degradation A375.10 BRAF 2 hours DC50
[3] = read-out: HiBiT-Degradation A375.10 BRAF 2 hours IP, inflection point

SMILES: CO[C@@H]1CCN(S(=O)(=O)Nc2ccc(F)c(Oc3ccc4ncn(C5CC6(CCN(C7CC8(C7)CN(c7cc9c(cc7F)c(N7CCC(=O)NC7=O)nn9C)C8)CC6)C5)c(=O)c4c3)c2C#N)C1 (stereo partly drawn) [Compound 269, (3R)-N-[2-cyano-3-[3-[7-[2-[3-(2,4-dioxohexahydropyrimidin-1-yl)-5-fluoro-1-methyl-indazol-6-yl]-2-azaspiro[3.3]heptan-6-yl]-7-azaspiro[3.5]nonan-2-yl]-4-oxo-quinazolin-6-yl]oxy-4-fluoro-phenyl]-3-methoxy-pyrrolidine-1-sulfonamide]
- DC50 (BRAF V600E; [2]): < 1000 nM
- Emax (BRAF V600E): < 50%
- DC50 (BRAF V600E; [3]): < 1000 nM

SMILES: COC1CN(S(=O)(=O)Nc2ccc(F)c(Oc3ccc4ncn(C5CC6(CCN(C7CC8(C7)CN(c7cc9c(cc7F)c(N7CCC(=O)NC7=O)nn9C)C8)CC6)C5)c(=O)c4c3)c2C#N)C1 (centres unmarked) [Compound 280, N-[2-cyano-3-[3-[7-[2-[3-(2,4-dioxohexahydropyrimidin-1-yl)-5-fluoro-1-methyl-indazol-6-yl]-2-azaspiro[3.3]heptan-6-yl]-7-azaspiro[3.5]nonan-2-yl]-4-oxo-quinazolin-6-yl]oxy-4-fluoro-phenyl]-3-methoxy-azetidine-1-sulfonamide]
- DC50 (BRAF V600E; [2]): < 1000 nM
- Emax (BRAF V600E): < 50%
- DC50 (BRAF V600E; [3]): < 1000 nM

SMILES: CC(C)(C)c1nc(-c2cccc(NS(=O)(=O)c3c(F)cccc3F)c2F)c(-c2ccnc(N)n2)s1 [Dabrafenib, dabrafenib, reference compound]
- T/C ([1]; 100 mg/kg): 26.6%
- TGI ([1]; 100 mg/kg): 81.5%
- Tumor Size on PG-D21 ([1]; 100 mg/kg): 588 ± 244 mm^3
- Tumor volume ([1]; 100 mg/kg, day 0): 221 ± 10 mm^3
- Tumor volume ([1]; 100 mg/kg, day 4): 288 ± 19 mm^3
- Tumor volume ([1]; 100 mg/kg, day 7): 348 ± 33 mm^3
- Tumor volume ([1]; 100 mg/kg, day 11): 383 ± 64 mm^3
- Tumor volume ([1]; 100 mg/kg, day 14): 407 ± 122 mm^3
- Tumor volume ([1]; 100 mg/kg, day 18): 454 ± 159 mm^3
- Tumor volume ([1]; 100 mg/kg, day 21): 588 ± 244 mm^3

SMILES: COC(=O)N[C@@H](C)CNc1nccc(-c2cn(C(C)C)nc2-c2cc(Cl)cc(NS(C)(=O)=O)c2F)n1 [Encorafenib, encorafenib, reference compound]
- T/C ([1]; 35 mg/kg): 10.6%
- TGI ([1]; 35 mg/kg): 99.3%
- Tumor Size on PG-D21 ([1]; 35 mg/kg): 235 ± 68 mm^3
- Tumor volume ([1]; 35 mg/kg, day 0): 221 ± 10 mm^3
- Tumor volume ([1]; 35 mg/kg, day 4): 260 ± 22 mm^3
- Tumor volume ([1]; 35 mg/kg, day 7): 278 ± 17 mm^3
- Tumor volume ([1]; 35 mg/kg, day 11): 238 ± 18 mm^3
- Tumor volume ([1]; 35 mg/kg, day 14): 209 ± 31 mm^3
- Tumor volume ([1]; 35 mg/kg, day 18): 196 ± 47 mm^3
- Tumor volume ([1]; 35 mg/kg, day 21): 235 ± 68 mm^3
